According to ChEMBL document CHEMBL1909046, “DrugMatrix in vitro pharmacology data”:

How the values were obtained:
[1] = molecular target: T1, Muscarinic acetylcholine receptor M2 (Homo sapiens, UniProt P08172); format: cell membranes, CHO-K1, Membrane; conditions: cho-k1; note: in other assays of this panel Not Active means under 50% inhibition at 10 µM
T1 sequence (P08172 whole entry): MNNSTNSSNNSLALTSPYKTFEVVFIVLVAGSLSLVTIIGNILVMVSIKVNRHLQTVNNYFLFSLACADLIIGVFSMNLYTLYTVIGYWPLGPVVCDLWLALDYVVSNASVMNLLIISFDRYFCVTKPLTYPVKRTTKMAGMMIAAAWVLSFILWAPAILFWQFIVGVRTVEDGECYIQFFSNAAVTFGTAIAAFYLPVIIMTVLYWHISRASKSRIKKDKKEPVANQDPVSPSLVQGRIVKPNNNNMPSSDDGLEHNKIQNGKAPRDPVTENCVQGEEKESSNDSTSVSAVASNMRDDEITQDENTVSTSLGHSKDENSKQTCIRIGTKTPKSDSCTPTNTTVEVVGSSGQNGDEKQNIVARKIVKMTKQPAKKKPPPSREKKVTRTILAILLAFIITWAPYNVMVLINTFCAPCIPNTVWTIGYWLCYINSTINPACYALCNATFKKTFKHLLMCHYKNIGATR

[2] = molecular target: Sigma non-opioid intracellular receptor 1 (Homo sapiens, UniProt Q99720); test: DRUGMATRIX: Sigma1 radioligand binding (ligand: [3H] Haloperidol); format: cell membranes, Jurkat, Membrane; conditions: jurkat; Not Active = under 50% inhibition at 10 µM
Sequence of Sigma non-opioid intracellular receptor 1 (Q99720 whole entry): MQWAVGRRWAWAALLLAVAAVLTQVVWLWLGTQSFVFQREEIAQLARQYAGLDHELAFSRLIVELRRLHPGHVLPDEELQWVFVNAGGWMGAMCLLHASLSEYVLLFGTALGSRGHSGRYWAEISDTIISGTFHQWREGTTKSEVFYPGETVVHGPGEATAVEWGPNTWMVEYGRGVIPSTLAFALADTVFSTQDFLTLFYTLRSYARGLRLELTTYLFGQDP

[3] = molecular target: T2, Amine oxidase [flavin-containing] A (Homo sapiens, UniProt P21397); test: DRUGMATRIX: Monoamine Oxidase MAO-A enzyme inhibition (substrate: Kynuramine); set-up: species or system BTI-TN-5B1-4; conditions: bti-tn-5b1-4; Not Active = under 50% inhibition at 10 µM
T2 sequence (P21397 whole entry): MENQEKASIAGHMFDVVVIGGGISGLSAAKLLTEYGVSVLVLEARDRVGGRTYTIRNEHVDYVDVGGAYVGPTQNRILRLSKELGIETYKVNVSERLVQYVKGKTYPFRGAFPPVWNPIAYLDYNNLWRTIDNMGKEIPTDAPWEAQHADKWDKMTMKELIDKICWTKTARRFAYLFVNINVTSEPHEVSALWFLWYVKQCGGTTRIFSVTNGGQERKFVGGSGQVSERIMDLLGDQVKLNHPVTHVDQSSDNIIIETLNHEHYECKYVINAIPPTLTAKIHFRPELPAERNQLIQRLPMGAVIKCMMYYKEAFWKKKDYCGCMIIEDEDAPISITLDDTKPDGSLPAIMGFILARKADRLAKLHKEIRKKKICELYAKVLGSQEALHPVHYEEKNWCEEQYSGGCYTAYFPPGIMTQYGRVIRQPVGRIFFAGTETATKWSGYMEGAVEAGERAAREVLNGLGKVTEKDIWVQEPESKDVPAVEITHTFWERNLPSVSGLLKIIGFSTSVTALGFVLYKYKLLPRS

[4] = DRUGMATRIX: Nicotinic Acetylcholine radioligand binding (ligand: [125I] Epibatidine); format: cell membranes, Membrane; conditions: imr-32; Not Active = under 50% inhibition at 10 µM
[5] = molecular target: T3, 3-hydroxy-3-methylglutaryl-coenzyme A reductase (Homo sapiens, UniProt P04035); set-up: species or system Escherichia coli;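 note: enzyme inhibition assay of HMG-CoA reductase using radiolabeled [14C]HMG-CoA as substrate; in other assays of this panel Not Active means under 50% inhibition at 10 µM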
T3 sequence (P04035 whole entry): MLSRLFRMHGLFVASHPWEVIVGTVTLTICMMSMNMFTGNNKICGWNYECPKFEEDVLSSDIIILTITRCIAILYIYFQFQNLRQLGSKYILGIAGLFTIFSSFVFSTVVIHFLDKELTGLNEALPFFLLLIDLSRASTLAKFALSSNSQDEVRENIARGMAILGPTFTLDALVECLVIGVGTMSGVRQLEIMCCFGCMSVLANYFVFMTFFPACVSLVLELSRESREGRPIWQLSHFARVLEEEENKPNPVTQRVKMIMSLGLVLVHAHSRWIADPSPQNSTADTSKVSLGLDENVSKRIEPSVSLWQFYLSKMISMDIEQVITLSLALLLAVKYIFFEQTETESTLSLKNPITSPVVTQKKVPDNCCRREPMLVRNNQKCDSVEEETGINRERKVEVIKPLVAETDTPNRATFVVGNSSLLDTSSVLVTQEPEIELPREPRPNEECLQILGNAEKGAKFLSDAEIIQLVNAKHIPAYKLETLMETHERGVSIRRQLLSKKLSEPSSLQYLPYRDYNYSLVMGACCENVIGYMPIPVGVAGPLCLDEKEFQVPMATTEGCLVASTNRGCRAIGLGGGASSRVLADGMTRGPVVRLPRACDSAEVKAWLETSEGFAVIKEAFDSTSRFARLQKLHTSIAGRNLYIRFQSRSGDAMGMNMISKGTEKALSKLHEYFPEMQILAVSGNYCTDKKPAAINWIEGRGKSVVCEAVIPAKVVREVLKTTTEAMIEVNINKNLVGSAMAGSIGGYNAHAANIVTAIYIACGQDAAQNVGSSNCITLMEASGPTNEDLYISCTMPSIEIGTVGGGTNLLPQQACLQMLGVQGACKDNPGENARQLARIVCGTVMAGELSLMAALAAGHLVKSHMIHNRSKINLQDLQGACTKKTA

[6] = DRUGMATRIX: Glutamate, NMDA, Phencyclidine radioligand binding (ligand: [3H] TCP); format: cell membranes, Rattus norvegicus, Wistar, Cerebral cortex, Membrane; conditions: Not Active = under 50% inhibition at 10 µM

CC(=O)[C@]1(O)Cc2c(O)c3c(c(O)c2[C@@H](O[C@H]2C[C@H](N)[C@H](O)[C@H](C)O2)C1)C(=O)c1ccccc1C3=O [IDARUBICIN]
Not Active: IC50 [1] | IC50 [2] | IC50 [3] | IC50 [4] | Ki [4] | IC50 [5] | IC50 [6] | Ki [6]

COC(=O)Nc1nc2ccc(Sc3ccccc3)cc2[nH]1 [FENBENDAZOLE]
Not Active: IC50 [1] | IC50 [2] | IC50 [3] | IC50 [4] | Ki [4] | IC50 [5] | IC50 [6] | Ki [6]

Cc1ccnc2c1NC(=O)c1cccnc1N2C1CC1 [NEVIRAPINE]
Not Active: IC50 [1] | IC50 [2] | IC50 [3] | IC50 [4] | Ki [4] | IC50 [5] | IC50 [6] | Ki [6]

COPPER(II) OXIDE
Not Active: IC50 [1] | Ki [1] | IC50 [2] | Ki [2] | IC50 [3] | Ki [3] | IC50 [4] | Ki [4] | IC50 [5] | Ki [5] | IC50 [6] | Ki [6]

OC[C@H]1O[C@@H]2O[C@H]3[C@H](O)[C@@H](O)[C@@H](O[C@H]4[C@H](O)[C@@H](O)[C@@H](O[C@H]5[C@H](O)[C@@H](O)[C@@H](O[C@H]6[C@H](O)[C@@H](O)[C@@H](O[C@H]7[C@H](O)[C@@H](O)[C@@H](O[C@H]8[C@H](O)[C@@H](O)[C@@H](O[C@H]1[C@H](O)[C@H]2O)O[C@@H]8CO)O[C@@H]7CO)O[C@@H]6CO)O[C@@H]5CO)O[C@@H]4CO)O[C@@H]3CO [BETADEX]
Not Active: IC50 [1] | IC50 [2] | IC50 [3] | IC50 [4] | Ki [4] | IC50 [5] | IC50 [6] | Ki [6]

O=C(O)CO [GLYCOLIC ACID]
Not Active: IC50 [1] | IC50 [2] | IC50 [3] | IC50 [4] | Ki [4] | IC50 [5] | IC50 [6] | Ki [6]

COc1cc(NC(C)CCCN)c2ncccc2c1 (stereo not drawn) [PRIMAQUINE]
Not Active: IC50 [1] | IC50 [2] | IC50 [3] | IC50 [4] | Ki [4] | IC50 [5] | IC50 [6] | Ki [6]

COc1ccc(Cl)cc1C(=O)NCCc1ccc(S(=O)(=O)NC(=O)NC2CCCCC2)cc1 [GLYBURIDE]
Not Active: IC50 [1] | IC50 [2] | IC50 [3] | IC50 [4] | Ki [4] | IC50 [5] | IC50 [6] | Ki [6]

CCO [ALCOHOL]
Not Active: IC50 [1] | IC50 [2] | IC50 [3] | IC50 [4] | Ki [4] | IC50 [5] | IC50 [6] | Ki [6]

CC(C)(c1ccc(O)cc1)c1ccc(O)cc1 [BISPHENOL A]
Not Active: IC50 [1] | IC50 [2] | IC50 [3] | IC50 [4] | Ki [4] | IC50 [5] | IC50 [6] | Ki [6]

CC12CCC(CC1=O)C2(C)C (stereo not drawn) [CAMPHOR]
Not Active: IC50 [1] | IC50 [2] | IC50 [3] | IC50 [4] | Ki [4] | IC50 [5] | IC50 [6] | Ki [6]

O=C(O)c1ccccc1 [BENZOIC ACID]
Not Active: IC50 [1] | IC50 [2] | IC50 [3] | IC50 [4] | Ki [4] | IC50 [5] | IC50 [6] | Ki [6]

Oc1ncnc2[nH]ncc12 [ALLOPURINOL]
Not Active: IC50 [1] | IC50 [2] | IC50 [3] | IC50 [4] | Ki [4] | IC50 [5] | IC50 [6] | Ki [6]
